Paper PMC9436819 (JACC: Basic to Translational Science, 2022)
Entries after “also recorded” stand apart in the source; their conditions may differ. Marks after values point to notes of the source that are not given here.

Legend:
Type in all cases: in vivo, human
[1] = test system: healthy adults; experiment: Treatment-emergent adverse events, single ascending dose (SAD) cohorts
Protocol: The SAD portion of the study used a randomized, double-blind, placebo-controlled, sequential, escalating dose design, in which participants received single ascending oral doses of the study drug. Seven cohorts were dosed in sequence (Figure 1). […] Safety was assessed by the incidence of adverse events (AEs) and by the incidence of reduced LVEF. Treatment-emergent AEs (TEAEs) were defined as AEs that began or increased after study drug administration. All AEs were coded using the Medical Dictionary for Regulatory Activities, version 21.1, and graded using the National Cancer Institute Common Terminology Criteria for AEs (version 4.03) 5-point severity scale.[18] Each AE was judged as either related or unrelated to the study drug by the treating investigator. Clinical laboratory tests were obtained at regular intervals in all cohorts.

[2] = Plasma pharmacokinetics after single oral doses (SAD cohorts); conditions: for half-life / Cmax / AUC / Tmax / AUC(0-inf) / Vd/F: human, plasma; for half-life: po; for AUC: read-out: AUC24; for Vd/F: read-out: Vz/F
Protocol: The SAD portion of the study used a randomized, double-blind, placebo-controlled, sequential, escalating dose design, in which participants received single ascending oral doses of the study drug. Seven cohorts were dosed in sequence (Figure 1).
For all study groups, blood samples for PK assessment were obtained predose, up to 12 times daily on day 1, and then at regular intervals throughout the study (see Supplemental Appendix for details). Standard noncompartmental methods were used to calculate PK parameters using Phoenix WinNonlin, version 7.0; actual sample collection times were used.
Statistical A nalysis of P harm acokinetic (PK) P aram eters
The PK analyses w ere int ended to assess single- dose kinetics, multiple-dose (steady state) […]
and the influence of food on the absorption and eli mination of aficamten.
For the SAD cohort, dos e proportionality of afi camten was evaluat ed using a power model on […]
and day 14 or 17. Several considerations were taken into account when assessing dose proportionality of the drug, such as results derived from the power model statistical analysis (e.g., the slope estimate and width of the 2- sided 95% confidence intervals [CIs ]), qualitative assessment specific to th e PK of the drug, and clinical relev ance. For th e SAD cohort, the […]
time curve (A UC)from time 0 to the time of the last measurable concentration(AUC last), AUC […]
plasma concent ration ( C max). […]
The statistical linear relationship between the ln-transformed PK parameters and the ln-transformed dos e was verified by including the quadratic (ln Dos e)2 and cubic (ln Dose) 3 effects.
The statistical linear relationship was established if the quadratic and cubi c effects were not […]
significant, but of such small magnitude that they were not clinically relevant. The dose-proportionality analysis was performed using SAS® PROC MIXED.

[3] = Plasma pharmacokinetics in the CYP2D6 poor metabolizer cohort
Protocol: CYP2D6 genotypes were determined at screening for all study participants; those identified as CYP2D6-PMs were excluded from the SAD and MAD cohorts but were invited to participate in the CYP2D6-PM cohort. The first individual in the CYP2D6-PM cohort was dosed after the SAD 25-mg cohort (Figure 1). […] Nine participants were randomized (7:2), with a sentinel dosing group consisting of the first 2 participants treated. For all study groups, blood samples for PK assessment were obtained predose, up to 12 times daily on day 1, and then at regular intervals throughout the study (see Supplemental Appendix for details). Standard noncompartmental methods were used to calculate PK parameters using Phoenix WinNonlin, version 7.0; actual sample collection times were used.

[4] = single oral dose 1 mg, geometric mean (geometric CV%), n = 6
[5] = single oral dose 3 mg, geometric mean (geometric CV%), n = 6
[6] = single oral dose 3 mg, mean ± SD, n = 5
[7] = single oral dose 10 mg, mean ± SD, n = 4
[8] = single oral dose 25 mg, geometric mean (geometric CV%), n = 6
[9] = single oral dose 25 mg, mean ± SD, n = 6
[10] = single oral dose 40 mg, geometric mean (geometric CV%), n = 6
[11] = single oral dose 40 mg, mean ± SD, n = 5
[12] = single oral dose 50 mg, geometric mean (geometric CV%), n = 11
[13] = single oral dose 50 mg, mean ± SD, n = 9
[14] = CYP2D6 poor metabolizers, single 10 mg, arithmetic mean ± SD, n = 7
[15] = human, plasma, oral, CYP2D6 poor metabolizers, single 10 mg, geometric mean (geometric CV%), n = 7

With `CCc1nc(-c2ccc3c(c2)CC[C@H]3NC(=O)c2cnn(C)c2)no1` [Aficamten] the “Participants with any TEAE” value ([1]; SAD 1 mg, n = 6) was 1 (17) n (%), the “Participants with any TEAE” value ([1]; SAD 10 mg, n = 6) was 1 (17) n (%) and the “TEAE: Headache” value ([1]; SAD 10 mg, n = 6) was 1 (17) n (%). For the same compound, the “Participants with any TEAE” value ([1]; SAD 25 mg, n = 6) was 5 (83) n (%), the “TEAE: Abdominal tenderness” value ([1]; SAD 25 mg, n = 6) was 1 (17) n (%) and the “TEAE: Dyspepsia” value ([1]; SAD 25 mg, n = 6) was 1 (17) n (%). For the same compound, the “TEAE: Flatulence” value ([1]; SAD 25 mg, n = 6) was 1 (17) n (%), the “TEAE: Headache” value ([1]; SAD 25 mg, n = 6) was 2 (33) n (%) and the “TEAE: Nausea” value ([1]; SAD 25 mg, n = 6) was 2 (33) n (%). For the same compound, the “TEAE: Upper abdominal pain” value ([1]; SAD 25 mg, n = 6) was 2 (33) n (%), the “Participants with any TEAE” value ([1]; SAD 40 mg, n = 6) was 1 (17) n (%) and the “TEAE: Ejection fraction decreased” value ([1]; SAD 40 mg, n = 6) was 1 (17) n (%). For the same compound, the “Participants with any TEAE” value ([1]; SAD 50 mg, n = 11) was 4 (36) n (%), the “TEAE: Abdominal tenderness” value ([1]; SAD 50 mg, n = 11) was 1 (9) n (%) and the “TEAE: Dyspepsia” value ([1]; SAD 50 mg, n = 11) was 1 (9) n (%). The “TEAE: Ejection fraction decreased” value ([1]; SAD 50 mg, n = 11) was 1 (9) n (%), the “TEAE: Flatulence” value ([1]; SAD 50 mg, n = 11) was 1 (9) n (%) and the “TEAE: Headache” value ([1]; SAD 50 mg, n = 11) was 1 (9) n (%). For the same compound, the “TEAE: Chest pain” value ([1]; SAD 50 mg, n = 11, bubbling sensation to the left chest, consistent with a gastrointestinal rather than cardiac association) was 1 (9) ^a n (%), the “Participants with any TEAE” value ([1]; SAD 75 mg, n = 1) was 1 (100) n (%) and the “TEAE: Ejection fraction decreased” value ([1]; SAD 75 mg, n = 1) was 1 (100) n (%). For the same compound, the “TEAE: Chest pain” value ([1]; SAD 75 mg, n = 1, onset approximately 60 hours postdose) was 1 (100) ^b n (%), the half-life ([2]; 3 mg, single oral dose 3 mg, mean ± SD, n = 5, read-out: t1/2 (converted)) was 75.1 ± 21.8 h and the half-life ([2]; 10 mg, single oral dose 10 mg (extensive metabolizers), mean ± SD, n = 4, read-out: t1/2 (converted)) was 85 h. It also gave a half-life ([2]; 25 mg, single oral dose 25 mg, mean ± SD, n = 6, read-out: t1/2 (converted)) of 79.8 ± 10 h, a half-life ([2]; 40 mg, single oral dose 40 mg, mean ± SD, n = 4, read-out: t1/2 (converted)) of 79.2 ± 18.5 h and a half-life ([2]; 50 mg, single oral dose 50 mg, mean ± SD, n = 9, read-out: t1/2 (converted)) of 80.4 ± 14.9 h. For the same compound, the half-life ([2]; single oral doses, read-out: Mean half-life, range across single-dose cohorts) was 75 to 85 h, the Cmax [2, 4] was 5.8 ng/mL and the AUC [2, 4] was 50 ng·h/mL. The Tmax ([2]; single oral dose 1 mg, median (range), n = 6, read-out: Tmax) was 1 h, the AUC(0-inf) ([2]; single oral dose 3 mg, geometric mean (geometric CV%), n = 5) was 823 ng·h/mL and the Cmax [2, 5] was 26.1 ng/mL. For the same compound, the AUC [2, 5] was 174 ng·h/mL, the Vd/F [2, 6] was 393 ± 122 L and the Tmax ([2]; single oral dose 3 mg, median (range), n = 6, read-out: Tmax) was 1.3 h. The AUC ([2]; single oral dose 10 mg (extensive metabolizers), geometric mean (geometric CV%), n = 6) was 679 ng·h/mL, the AUC(0-inf) ([2]; single oral dose 10 mg, geometric mean (geometric CV%), n = 4) was 3430 ng·h/mL and the Cmax ([2]; single oral dose 10 mg, geometric mean (geometric CV%), n = 6) was 70.5 ng/mL. For the same compound, the Vd/F [2, 7] was 362 ± 108 L, the Tmax ([2]; single oral dose 10 mg, median (range), n = 6, read-out: Tmax) was 2.8 h and the AUC(0-inf) [2, 8] was 7110 ng·h/mL. The Cmax [2, 8] was 193 ng/mL, the AUC [2, 8] was 1490 ng·h/mL and the Vd/F [2, 9] was 405 ± 56.6 L. The Tmax ([2]; single oral dose 25 mg, median (range), n = 6, read-out: Tmax) was 1.8 h, the AUC(0-inf) ([2]; single oral dose 40 mg, geometric mean (geometric CV%), n = 5) was 11900 ng·h/mL and the Cmax [2, 10] was 383 ng/mL. It also gave an AUC [2, 10] of 2530 ng·h/mL, a Vd/F [2, 11] of 382 ± 66.9 L and a Tmax ([2]; single oral dose 40 mg, median (range), n = 6, read-out: Tmax) of 1 h. The AUC(0-inf) ([2]; single oral dose 50 mg, geometric mean (geometric CV%), n = 9) was 13700 ng·h/mL, the Cmax [2, 12] was 359 ng/mL and the AUC [2, 12] was 2830 ng·h/mL. The Vd/F [2, 13] was 431 ± 123 L, the Tmax ([2]; single oral dose 50 mg, median (range), n = 11, read-out: Tmax) was 1 h and the Tmax ([2]; single oral dose 75 mg, median (range), n = 1, read-out: Tmax) was 0.5 h. It also gave a Cmax ([2]; single oral dose 75 mg, n = 1) of 1220 ng/mL, an AUC ([2]; single oral dose 75 mg, n = 1) of 4560 ng·h/mL and a Tmax ([2]; single oral doses 1 to 75 mg, read-out: Median time to reach peak concentrations, range across doses) of 0.5 to 2.76 h. It also gave a CL/F [2, 6] of 4.2 ± 3.1 L/h, a t1/2 ([2]; single oral dose 10 mg (extensive metabolizers), mean ± SD, n = 4) of 84.7 ± 17.7 h and a CL/F [2, 7] of 3.0 ± 0.7 L/h. It also gave a CL/F [2, 9] of 3.6 ± 0.5 L/h, a CL/F [2, 11] of 3.4 ± 0.6 L/h and a CL/F [2, 13] of 3.8 ± 1.1 L/h. For the same compound, the “Maximum time to maximum observed concentration across all participants” value ([2]; single oral doses) was 4.0 h, the “Dose proportionality of Cmax and exposure” value ([2]; single oral doses 1 to 50 mg) was “dose-proportional; also recorded: dose proportionality; also recorded: linear kinetics” and the CL/F [3, 14] was 3.6 ± 1.4 L/h. It also gave a t½ [3, 14] of 110 h, a half-life ([3]; human, plasma, oral, 10 mg, CYP2D6 poor metabolizers, single 10 mg, arithmetic mean ± SD, n = 7, read-out: t½ (converted)) of 110 ± 47.3 h and a Vd/F ([3]; human, plasma, oral, CYP2D6 poor metabolizers, single 10 mg, arithmetic mean ± SD, n = 7, read-out: Vz/F) of 506 ± 84.4 L. It also gave an AUC(0-inf) [3, 15] of 2970 ng·h/mL, a Cmax [3, 15] of 57.3 ng/mL and an AUC ([3]; human, plasma, oral, CYP2D6 poor metabolizers, single 10 mg, geometric mean (geometric CV%), n = 7, read-out: AUC24) of 495 ng·h/mL. For the same compound, the Tmax ([3]; human, plasma, oral, CYP2D6 poor metabolizers, single 10 mg, median (range), n = 7) was 1 h, the “Effect of CYP2D6 poor metabolizer phenotype on the PK” value ([3]; single 10 mg) was “not affected; also recorded: no effect” and the “Plasma mean concentrations in CYP2D6 poor metabolizers versus extensive metabolizers” value ([3]; single 10-mg dose) was “Modestly lower”.
